For orientation: IC50 means the point on the concentration scale where inhibition reaches its midpoint. A lower IC50 goes with inhibition by little substance.

Data on 52 compounds can be found in US11365192B2, “Pyridine compound substituted with azole” (TAISHO PHARMACEUTICAL CO., LTD., priority 2017, dated 2022).

For one test, the target named is human CYP4A11 (Homo sapiens (Human), UniProt Q02928). Briefly: Inhibition test against 20-HETE producing enzyme CYP4A11 (luciferine derivative, luminescence). The test is classed as biochemical. The method in brief:
(§1)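 IC50 derived from luminescence after 60 min at room temperature with membrane fractions of E. coli expressing each human CYP (100 μg/mL protein). For CYP4A11, 60 μM luciferin derivative in 100 mM Tris-HCl pH 7.5 with NADPH-regenerating system; for CYP4F2, 2.5 μM substrate, 1 mM NADPH, 50 mM KPO4 pH 7.4.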

The next test has as its target human CYP4F2 (Homo sapiens (Human), UniProt P78329). Nature of the test: Inhibition test against 20-HETE producing enzyme CYP4F2 (luciferine derivative, luminescence). Type of test: biochemical. The method in brief: as §1
Where [1] appears, read: E. coli membrane fraction expressing human CYP4A11, 60 μM luciferine derivative, room temperature 60 minutes.
Where [2] appears, read: E. coli membrane fraction expressing human CYP4F2, 2.5 μM luciferine derivative, room temperature 60 minutes.
Setting [3] is: human CYP4A11, luciferine derivative, luminescence.
Setting [4] is: human CYP4F2, luciferine derivative, luminescence.

human CYP4F2, sequence (P78329 5-520): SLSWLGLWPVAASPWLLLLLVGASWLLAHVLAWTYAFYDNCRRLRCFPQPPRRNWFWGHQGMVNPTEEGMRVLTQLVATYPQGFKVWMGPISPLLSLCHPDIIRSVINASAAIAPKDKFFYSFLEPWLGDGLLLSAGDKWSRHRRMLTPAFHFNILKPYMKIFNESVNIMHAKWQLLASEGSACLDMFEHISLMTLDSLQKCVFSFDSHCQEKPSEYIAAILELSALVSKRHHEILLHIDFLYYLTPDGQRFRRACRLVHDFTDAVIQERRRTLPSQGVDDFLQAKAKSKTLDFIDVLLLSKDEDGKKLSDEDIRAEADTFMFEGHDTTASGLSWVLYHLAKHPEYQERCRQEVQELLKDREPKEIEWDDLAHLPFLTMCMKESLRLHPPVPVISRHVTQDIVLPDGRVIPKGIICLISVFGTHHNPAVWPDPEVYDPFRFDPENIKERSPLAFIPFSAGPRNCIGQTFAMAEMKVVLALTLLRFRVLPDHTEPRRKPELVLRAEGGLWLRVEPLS
human CYP4A11, sequence (Q02928 5-519): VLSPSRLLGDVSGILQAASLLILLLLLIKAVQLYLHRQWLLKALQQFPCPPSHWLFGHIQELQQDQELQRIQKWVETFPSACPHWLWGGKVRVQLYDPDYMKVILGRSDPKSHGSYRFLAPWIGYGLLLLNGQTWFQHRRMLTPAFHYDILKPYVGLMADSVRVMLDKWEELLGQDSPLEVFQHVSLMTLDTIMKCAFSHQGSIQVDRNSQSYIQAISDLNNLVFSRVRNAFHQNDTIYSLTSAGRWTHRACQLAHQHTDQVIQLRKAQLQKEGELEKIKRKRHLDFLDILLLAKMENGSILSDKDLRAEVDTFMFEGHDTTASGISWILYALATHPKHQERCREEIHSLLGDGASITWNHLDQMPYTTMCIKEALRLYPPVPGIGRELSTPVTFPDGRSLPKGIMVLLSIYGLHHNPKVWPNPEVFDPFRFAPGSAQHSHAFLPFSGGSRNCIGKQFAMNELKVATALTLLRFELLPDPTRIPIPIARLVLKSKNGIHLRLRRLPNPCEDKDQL

Turning to `CCCNC(=O)Cc1cccc(COc2ccc(-c3ccn[nH]3)nc2)c1` [Example 42-6], the figures for the IC50 at human CYP4A11 (setting [1]) and against human CYP4F2 (setting [2]) were 300 nM and 97 nM, respectively.
The matching figures for `O=C(Cc1cccc(COc2ccc(-c3ccn[nH]3)nc2)c1)NCCO` [Example 42-7]: 760 nM and 1100 nM.
For the compound `CNC(=O)CCc1cccc(COc2ccc(-c3ccn[nH]3)nc2)c1` [Example 42-8], the IC50 amounted to 120 nM on human CYP4A11 (setting [1]) and 70 nM on human CYP4F2 (setting [2]).
Turning to `CN(C)C(=O)CCc1cccc(COc2ccc(-c3ccn[nH]3)nc2)c1` [Example 42-9], the IC50 at human CYP4A11 (setting [1]) came to 67 nM; at human CYP4F2 (setting [2]), 76 nM.
As for `CCCNC(=O)CCc1cccc(COc2ccc(-c3ccn[nH]3)nc2)c1` [Example 42-10], the values for the IC50 on human CYP4A11 (setting [1]) and against human CYP4F2 (setting [2]) were 46 nM and 15 nM, respectively.
As to `O=C(CCc1cccc(COc2ccc(-c3ccn[nH]3)nc2)c1)NCCO` [Example 42-11], the IC50 amounted to 100 nM on human CYP4A11 (setting [1]) and 95 nM at human CYP4F2 (setting [2]).
Turning to `O=C(CCc1cccc(COc2ccc(-c3ccn[nH]3)nc2)c1)N1CCC1` [Example 42-12], the IC50 was determined as 44 nM on human CYP4A11 (setting [1]) and 42 nM against human CYP4F2 (setting [2]).
For `O=C(CCc1cccc(COc2ccc(-c3ccn[nH]3)nc2)c1)N1CCCC1` [Example 42-13], the results for the half-inhibitory concentration (IC50) against human CYP4A11 (setting [1]) and against human CYP4F2 (setting [2]) were 150 nM and 15 nM, respectively.
Regarding `O=C(CCc1cccc(COc2ccc(-c3ccn[nH]3)nc2)c1)N1CCCCC1` [Example 42-14], the IC50 was 240 nM on human CYP4A11 (setting [3]) and 30 nM on human CYP4F2 (setting [4]).
For the compound `O=C(CCc1cccc(COc2ccc(-c3ccn[nH]3)nc2)c1)N1CCOCC1` [Example 42-15], the IC50 against human CYP4A11 (setting [3]) was determined as 400 nM; at human CYP4F2 (setting [4]) it was 140 nM.
For `CN(C)C(=O)/C=C/c1cccc(COc2ccc(-c3ccn[nH]3)nc2)c1` [Example 42-16], the IC50 against human CYP4A11 (setting [3]) is 210 nM; against human CYP4F2 (setting [4]), 5.7 nM.
For `O=C(CCc1cccc(COc2cnc(-c3ccn[nH]3)c(F)c2)c1)N1CCC1` [Example 42-17], the IC50 against human CYP4A11 (setting [3]) came to 35 nM; on human CYP4F2 (setting [4]) it was 12 nM.
For the compound `O=C(CCc1cccc(COc2cnc(-c3ccn[nH]3)c(F)c2)c1)NCCO` [Example 42-18], the values for the IC50 at human CYP4A11 (setting [3]) and on human CYP4F2 (setting [4]) were 58 nM and 21 nM, respectively.
The corresponding values for `O=C(CCc1cccc(COc2cnc(-c3ccn[nH]3)c(F)c2)c1)N1CC(O)C1` [Example 42-19] are 110 nM and 47 nM.
The matching figures for `O=C(CCc1cccc(COc2cnc(-c3ccn[nH]3)c(F)c2)c1)NC1COC1` [Example 42-20]: 76 nM and 11 nM.
In the case of `CN(C)C(=O)[C@H]1C[C@](O)(c2cccc(COc3ccc(-c4ccn[nH]4)nc3)c2)C1` [Example 42-21], the IC50 was found to be 430 nM against human CYP4A11 (setting [3]) and 28 nM on human CYP4F2 (setting [4]).
The corresponding values for `CN(C)C(=O)[C@H]1C[C@](O)(c2cc(COc3ccc(-c4ccn[nH]4)nc3)ccc2F)C1` [Example 42-22] are 270 nM and 99 nM.
In the case of `CNC(=O)C(C)c1cccc(COc2ccc(-c3ccn[nH]3)nc2)c1` (centres unmarked) [Example 42-23], the IC50 was determined as 160 nM against human CYP4A11 (setting [3]) and 55 nM at human CYP4F2 (setting [4]).
The corresponding values for `CNC(=O)C(C)(C)c1cccc(COc2ccc(-c3ccn[nH]3)nc2)c1` [Example 42-24] are 39 nM and 150 nM.
The matching figures for `O=C(CCc1cccc(COc2ccc(-c3ccn[nH]3)nc2)c1)N1CC(F)C1` [Example 43-1, 1-(3-Fluoro-1-azetidinyl)-3-[3-[[6-(1H-pyrazol-5-yl)-3-pyridinyl]oxymethyl]phenyl]-1-propanone]: 58 nM and 52 nM.
The matching figures for `O=C(CCc1cccc(COc2ccc(-c3ccn[nH]3)nc2)c1)N1CC(F)(F)C1` [Example 43-2]: 59 nM and 48 nM.
As to `CN(CCO)C(=O)CCc1cccc(COc2ccc(-c3ccn[nH]3)nc2)c1` [Example 43-3], the IC50 at human CYP4A11 (setting [3]) came to 310 nM; on human CYP4F2 (setting [4]) it was 170 nM.
The matching figures for `O=C(CCc1cccc(COc2ccc(-c3ccn[nH]3)nc2)c1)NC1COC1` [Example 43-4]: 150 nM and 45 nM.
The corresponding values for `COCCNC(=O)CCc1cccc(COc2ccc(-c3ccn[nH]3)nc2)c1` [Example 43-5] are 82 nM and 40 nM.
With `C[C@@H](O)CNC(=O)CCc1cccc(COc2ccc(-c3ccn[nH]3)nc2)c1` [Example 43-6], the IC50 against human CYP4A11 (setting [3]) came to 56 nM; on human CYP4F2 (setting [4]), 92 nM.
The corresponding values for `C[C@@H](CO)NC(=O)CCc1cccc(COc2ccc(-c3ccn[nH]3)nc2)c1` [Example 43-7] are 320 nM and 63 nM.
The matching figures for `C[C@H](CO)NC(=O)CCc1cccc(COc2ccc(-c3ccn[nH]3)nc2)c1` [Example 43-8]: 120 nM and 120 nM.
For the compound `C[C@H](O)CNC(=O)CCc1cccc(COc2ccc(-c3ccn[nH]3)nc2)c1` [Example 43-9], the IC50 on human CYP4A11 (setting [3]) stood at 130 nM; against human CYP4F2 (setting [4]) it was 73 nM.
As for `O=C(CCc1cccc(COc2ccc(-c3ccn[nH]3)nc2)c1)N1CC(O)C1` [Example 43-10], the IC50 was 140 nM at human CYP4A11 (setting [3]) and 190 nM against human CYP4F2 (setting [4]).
The matching figures for `O=C(CCc1cccc(COc2ccc(-c3ccn[nH]3)nc2)c1)NCC(=O)N1CCCC1` [Example 43-11]: 280 nM and 32 nM.
The corresponding values for `CO[C@H](C)CNC(=O)CCc1cccc(COc2ccc(-c3ccn[nH]3)nc2)c1` [Example 43-12] are 76 nM and 40 nM.
The corresponding values for `O=C(CCc1cccc(COc2ccc(-c3ccn[nH]3)nc2)c1)NC[C@H]1CCCO1` [Example 43-13] are 48 nM and 21 nM.
On to `O=C(CCc1cccc(COc2ccc(-c3ccn[nH]3)nc2)c1)NC[C@@H]1CCCO1` [Example 43-14], for which the values for the IC50 on human CYP4A11 (setting [3]) and at human CYP4F2 (setting [4]) were 52 nM and 18 nM, respectively.
The corresponding values for `CN(C)CCNC(=O)CCc1cccc(COc2ccc(-c3ccn[nH]3)nc2)c1` [Example 43-15] are 910 nM and 280 nM.
`CN(C)C(=O)C1CC1c1cccc(COc2ccc(-c3ccn[nH]3)nc2)c1` (centres unmarked) [Example 43-16]: the values for the IC50 on human CYP4A11 (setting [3]) and against human CYP4F2 (setting [4]) were 190 nM and 22 nM, respectively.
The corresponding values for `CS(=O)(=O)NC(=O)c1cccc(COc2ccc(-c3ccn[nH]3)nc2)c1` [Example 44-1, N-Methylsulfonyl-3-[[6-(1H-pyrazol-5-yl)-3-pyridinyl]oxymethyl]benzamide] are 49 nM and 7500 nM.
The corresponding values for `CN(C(=O)c1cccc(COc2ccc(-c3ccn[nH]3)nc2)c1)S(C)(=O)=O` [Example 44-2] are 340 nM and 73 nM.
The corresponding values for `CS(=O)(=O)NC(=O)Cc1cccc(COc2ccc(-c3ccn[nH]3)nc2)c1` [Example 44-3] are 44 nM and 11000 nM.
For the compound `CN(C(=O)Cc1cccc(COc2ccc(-c3ccn[nH]3)nc2)c1)S(C)(=O)=O` [Example 44-4], the IC50 against human CYP4A11 (setting [3]) was 410 nM; against human CYP4F2 (setting [4]) it was 290 nM.
The matching figures for `CS(=O)(=O)NC(=O)CCc1cccc(COc2ccc(-c3ccn[nH]3)nc2)c1` [Example 44-5]: 31 nM and 2700 nM.
For the compound `CN(C(=O)CCc1cccc(COc2ccc(-c3ccn[nH]3)nc2)c1)S(C)(=O)=O` [Example 44-6], the IC50 at human CYP4A11 (setting [3]) was 230 nM; against human CYP4F2 (setting [4]), 45 nM.
`NC(=O)c1cc(COc2ccc(-c3ccn[nH]3)nc2)ccn1` [Example 44-7, 4-[[6-(1H-Pyrazol-5-yl)-3-pyridinyl]oxymethyl]-2-pyridinecarboxamide]: the values for the IC50 against human CYP4A11 (setting [3]) and at human CYP4F2 (setting [4]) were 3800 nM and 85 nM, respectively.
For the compound `O=C(O)CCNC(=O)c1cccc(COc2ccc(-c3ccn[nH]3)nc2)c1` [Example 45-1, 3-[[Oxo-[3-[[6-(1H-pyrazol-5-yl)-3-pyridinyl]oxymethyl]phenyl]methyl]amino]propanoic Acid], the figures for the IC50 against human CYP4A11 (setting [3]) and on human CYP4F2 (setting [4]) were 120 nM and 7600 nM, respectively.
The corresponding values for `CN(CCC(=O)O)C(=O)c1cccc(COc2ccc(-c3ccn[nH]3)nc2)c1` [Example 45-2] are 150 nM and 3200 nM.
The corresponding values for `CC(C)(CNC(=O)c1cccc(COc2ccc(-c3ccn[nH]3)nc2)c1)C(=O)O` [Example 45-3] are 91 nM and 6100 nM.
For the compound `O=C(NCC1(C(=O)O)CC1)c1cccc(COc2ccc(-c3ccn[nH]3)nc2)c1` [Example 45-4], the results for the IC50 against human CYP4A11 (setting [3]) and at human CYP4F2 (setting [4]) were 86 nM and 6400 nM, respectively.
With `O=C(NCC1(C(=O)O)CCCC1)c1cccc(COc2ccc(-c3ccn[nH]3)nc2)c1` [Example 45-5], the IC50 at human CYP4A11 (setting [3]) was determined as 74 nM; on human CYP4F2 (setting [4]) it was 750 nM.
Take `O=C(NCC1(C(=O)O)CCOCC1)c1cccc(COc2ccc(-c3ccn[nH]3)nc2)c1` [Example 45-6]: the half-maximal inhibitory concentration (IC50) at human CYP4A11 (setting [3]) came to 250 nM; against human CYP4F2 (setting [4]), 4500 nM.
The matching figures for `O=C(O)C[C@H](NC(=O)c1cccc(COc2ccc(-c3ccn[nH]3)nc2)c1)c1ccccc1` [Example 45-7]: 780 nM and 2900 nM.
The corresponding values for `O=C(O)C[C@@H](NC(=O)c1cccc(COc2ccc(-c3ccn[nH]3)nc2)c1)c1ccccc1` [Example 45-8] are 130 nM and 1900 nM.
The matching figures for `C[C@H](NC(=O)c1cccc(COc2ccc(-c3ccn[nH]3)nc2)c1)C(=O)O` [Example 45-9]: 82 nM and 4800 nM.
With `C[C@@H](NC(=O)c1cccc(COc2ccc(-c3ccn[nH]3)nc2)c1)C(=O)O` [Example 45-10], the figures for the IC50 at human CYP4A11 (setting [3]) and against human CYP4F2 (setting [4]) were 180 nM and 10000 nM, respectively.
